Assay results reported in US10159640B2, “Prebiotic oral care compositions containing amino acids” (COLGATE-PALMOLIVE COMPANY, priority 2013, dated 2018).

Columns and labels:
Format in all cases: cell-based
Actinomyces naeslundii = test: Metabolic activity, Biolog phenotype microarray; settings: control without dipeptide = 1
How it was run: (§1)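 Each species, grown 48 h anaerobically on blood agar, was suspended in IF-0 fluid with tetrazolium Redox Dye D, succinate and ferric citrate, then dispensed onto dipeptide-preloaded plates. Incubated anaerobically at 37° C; OD 492 nm read at 24 and 48 h versus no-dipeptide controls; mean of three biological replicates.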

Actinomyces viscosus = test: Metabolic activity, Biolog phenotype microarray; settings: control without dipeptide = 1
How it was run: as §1

[1] = system: Aggregatibacter actinomycetemcomitans; test: Metabolic activity, Biolog phenotype microarray; settings: control without dipeptide = 1
How it was run: as §1

Capnocytophaga sputigena = test: Metabolic activity, Biolog phenotype microarray; settings: control without dipeptide = 1
How it was run: as §1

Fusobacterium nucleatum = test: Metabolic activity, Biolog phenotype microarray; settings: control without dipeptide = 1
How it was run: as §1

Porphyromonas gingivalis = test: Metabolic activity, Biolog phenotype microarray; settings: control without dipeptide = 1
How it was run: as §1

Prevotella intermedia = test: Metabolic activity, Biolog phenotype microarray; settings: control without dipeptide = 1
How it was run: as §1

Streptococcus gordonii = test: Metabolic activity, Biolog phenotype microarray; settings: control without dipeptide = 1
How it was run: as §1

Streptococcus mitis = test: Metabolic activity, Biolog phenotype microarray; settings: control without dipeptide = 1
How it was run: as §1

Streptococcus mutans = test: Metabolic activity, Biolog phenotype microarray; settings: control without dipeptide = 1
How it was run: as §1

Streptococcus salivarius = test: Metabolic activity, Biolog phenotype microarray; settings: control without dipeptide = 1
How it was run: as §1

Streptococcus sanguinis = test: Metabolic activity, Biolog phenotype microarray; settings: control without dipeptide = 1
How it was run: as §1

Streptococcus sobrinus = test: Metabolic activity, Biolog phenotype microarray; settings: control without dipeptide = 1
How it was run: as §1

Tannerella forsythia = test: Metabolic activity, Biolog phenotype microarray; settings: control without dipeptide = 1
How it was run: as §1

Veillonella parvula = test: Metabolic activity, Biolog phenotype microarray; settings: control without dipeptide = 1
How it was run: as §1

[2] = system: beneficial oral bacteria and pathogenic oral bacteria; test: Metabolic activity, whole panel: prebiotic effect; settings: 48 hrs; threshold value of 2
How it was run: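 Biolog phenotype microarrays with dipeptide-preloaded wells; each species suspended in IF-0 with Redox Dye Mix D (85% transmittance) plus succinate/ferric citrate, incubated anaerobically at 37° C. Tetrazolium reduction read at 492 nm at 24 and 48 h versus no-dipeptide controls; values are means of three biological replicates.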

Question: Which “metabolic activity: OD 492 nm divided by OD of control” value (shortened to “metabolic activity: OD 492 nm divided”) (Actinomyces naeslundii; 24 hrs) does the source give for Trp-Leu here?
Answer: 1.1778

Question: And the “metabolic activity: OD 492 nm divided” value (Actinomyces naeslundii; 48 hrs)?
Answer: 1.4354

Question: And the “metabolic activity: OD 492 nm divided” value (Actinomyces viscosus; 24 hrs)?
Answer: 1.6496

Question: What about the “metabolic activity: OD 492 nm divided” value (Actinomyces viscosus; 48 hrs) of the same substance?
Answer: 2.0774

Question: What about the “metabolic activity: OD 492 nm divided” value ([1]; 24 hrs) of the same substance?
Answer: 1.0357

Question: And the “metabolic activity: OD 492 nm divided” value ([1]; 48 hrs)?
Answer: 1.1455

Question: What about the “metabolic activity: OD 492 nm divided” value (Capnocytophaga sputigena; 24 hrs) of the same substance?
Answer: 0.8565

Question: What about the “metabolic activity: OD 492 nm divided” value (Capnocytophaga sputigena; 48 hrs) of the same substance?
Answer: 0.9454

Question: And the “metabolic activity: OD 492 nm divided” value (Fusobacterium nucleatum; 24 hrs)?
Answer: 0.9945

Question: And the “metabolic activity: OD 492 nm divided” value (Fusobacterium nucleatum; 48 hrs)?
Answer: 1.0254

Question: What about the “metabolic activity: OD 492 nm divided” value (Porphyromonas gingivalis; 24 hrs) of the same substance?
Answer: 1.0236

Question: And the “metabolic activity: OD 492 nm divided” value (Porphyromonas gingivalis; 48 hrs)?
Answer: 1.2127

Question: What about the “metabolic activity: OD 492 nm divided” value (Prevotella intermedia; 24 hrs) of the same substance?
Answer: 1.0663

Question: And the “metabolic activity: OD 492 nm divided” value (Prevotella intermedia; 48 hrs)?
Answer: 1.0399

Question: And the “metabolic activity: OD 492 nm divided” value (Streptococcus gordonii; 24 hrs)?
Answer: 1.2109

Question: And the “metabolic activity: OD 492 nm divided” value (Streptococcus gordonii; 48 hrs)?
Answer: 1.2858

Question: What about the “metabolic activity: OD 492 nm divided” value (Streptococcus mitis; 24 hrs) of the same substance?
Answer: 1.0445

Question: And the “metabolic activity: OD 492 nm divided” value (Streptococcus mitis; 48 hrs)?
Answer: 1.0524

Question: What about the “metabolic activity: OD 492 nm divided” value (Streptococcus mutans; 24 hrs) of the same substance?
Answer: 1.0145

Question: What about the “metabolic activity: OD 492 nm divided” value (Streptococcus mutans; 48 hrs) of the same substance?
Answer: 1.1337

Question: What about the “metabolic activity: OD 492 nm divided” value (Streptococcus salivarius; 24 hrs) of the same substance?
Answer: 1.0960

Question: What about the “metabolic activity: OD 492 nm divided” value (Streptococcus salivarius; 48 hrs) of the same substance?
Answer: 1.1505

Question: What about the “metabolic activity: OD 492 nm divided” value (Streptococcus sanguinis; 24 hrs) of the same substance?
Answer: 0.9310

Question: And the “metabolic activity: OD 492 nm divided” value (Streptococcus sanguinis; 48 hrs)?
Answer: 0.9561

Question: What about the “metabolic activity: OD 492 nm divided” value (Streptococcus sobrinus; 24 hrs) of the same substance?
Answer: 1.1681

Question: What about the “metabolic activity: OD 492 nm divided” value (Streptococcus sobrinus; 48 hrs) of the same substance?
Answer: 1.2761

Question: What about the “metabolic activity: OD 492 nm divided” value (Tannerella forsythia; 24 hrs) of the same substance?
Answer: 1.0234

Question: What about the “metabolic activity: OD 492 nm divided” value (Tannerella forsythia; 48 hrs) of the same substance?
Answer: 1.1079

Question: What about the “metabolic activity: OD 492 nm divided” value (Veillonella parvula; 24 hrs) of the same substance?
Answer: 0.8734

Question: What about the “metabolic activity: OD 492 nm divided” value (Veillonella parvula; 48 hrs) of the same substance?
Answer: 0.7918

Question: And the “prebiotic effects (metabolic activity)” value [2]?
Answer: exhibited prebiotic effects
